Data from patent publication US12228572B2, “Enhanced expression of polo-like kinase 3 (PLK3) in human immunodeficiency virus (HIV)-infected cells” (priority 2021, dated 2025).

Target: T1, human PLK3 (Homo sapiens, UniProt Q9H4B4)
T1 construct: expressed in transfected cells
Type: cell-based

T1 sequence (Q9H4B4 whole entry): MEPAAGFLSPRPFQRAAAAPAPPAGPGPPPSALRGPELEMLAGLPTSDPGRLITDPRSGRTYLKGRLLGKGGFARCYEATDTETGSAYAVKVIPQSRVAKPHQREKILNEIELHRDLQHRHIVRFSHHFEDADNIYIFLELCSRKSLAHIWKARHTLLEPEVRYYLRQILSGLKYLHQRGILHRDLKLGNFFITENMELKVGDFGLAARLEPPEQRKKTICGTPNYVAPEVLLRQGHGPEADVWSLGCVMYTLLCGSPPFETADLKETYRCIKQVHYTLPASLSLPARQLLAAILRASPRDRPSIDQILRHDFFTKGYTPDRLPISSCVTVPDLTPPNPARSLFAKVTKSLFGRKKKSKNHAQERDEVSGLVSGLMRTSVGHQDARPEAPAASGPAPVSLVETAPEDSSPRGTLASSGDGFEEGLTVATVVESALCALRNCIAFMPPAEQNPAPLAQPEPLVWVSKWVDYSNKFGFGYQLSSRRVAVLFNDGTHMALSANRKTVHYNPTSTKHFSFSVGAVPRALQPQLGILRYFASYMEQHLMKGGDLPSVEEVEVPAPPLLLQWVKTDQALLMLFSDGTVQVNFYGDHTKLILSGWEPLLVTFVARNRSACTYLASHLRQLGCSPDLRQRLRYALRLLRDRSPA

## COc1cc2ncn(-c3cc(OCc4ccccc4C(F)(F)F)c(C(N)=O)s3)c2cc1OC [GW843682X]
  effect on the anti-HIV-1 ability of human PLK3: can inhibit the anti-HIV-1 ability of human PLK3
  expression level of PLK3: not changed
